Test results reported in PubChem BioAssay (NCI).
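How tested: cells in 96-well plates exposed to compound for 48 hours at five concentrations. TGI marks complete inhibition of growth.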

Legend:
Test in all cases: growth of human tumour cells (NCI), 48 h
A549 NSCLC = system: A549 NSCLC
CAKI-1 renal = system: CAKI-1 renal
HCC-2998 colon = system: HCC-2998 colon
HCT-15 colon = system: HCT-15 colon
HOP-92 NSCLC = system: HOP-92 NSCLC
M14 melanoma = system: M14 melanoma
SF-539 CNS = system: SF-539 CNS
SK-MEL-28 melanoma = system: SK-MEL-28 melanoma
SK-MEL-5 melanoma = system: SK-MEL-5 melanoma
SK-OV-3 ovarian = system: SK-OV-3 ovarian

Row | SMILES | TGI (A549 NSCLC) [µM] | TGI (CAKI-1 renal) [µM] | TGI (HCC-2998 colon) [µM] | TGI (HCT-15 colon) [µM] | TGI (HOP-92 NSCLC) [µM] | TGI (M14 melanoma) [µM] | TGI (SF-539 CNS) [µM] | TGI (SK-MEL-28 melanoma) [µM] | TGI (SK-MEL-5 melanoma) [µM] | TGI (SK-OV-3 ovarian) [µM]
1 | S=C(NCc1ccccc1)N/N=C/c1ccccn1 | > 100 | > 96.6 | > 68.5 | > 40.5 | 52.7 | 9.32 | > 100 | > 100 | > 93.6 | > 29
2 | O=C1c2ccccc2-c2[nH]c3cn[nH]c(=O)c3c21 | > 100 | > 100 | – | > 100 | > 100 | > 100 | > 100 | – | > 100 | > 100
3 | Cc1ccc(S(=O)(=O)N(CC(O)COc2ccccc2)c2ccc(F)cc2F)cc1 (stereo unspecified) | 26.9 | 29.9 | 29.7 | 30.8 | 12.4 | 34.1 | 30 | 29.7 | 27.8 | 41.6
4 | O=C(CC1Sc2ccccc2NC1=O)Nc1ccc(Cl)cc1 (stereo unspecified) | > 100 | > 100 | > 100 | > 100 | 67.2 | > 100 | > 100 | > 100 | > 100 | > 100
5 | O=C(c1ccco1)N(C(=S)OC12CC3CC(CC(C3)C1)C2)c1ccccc1 | > 100 | > 100 | 72 | > 100 | > 100 | 43.7 | 41.7 | > 100 | 35.5 | > 100
6 | N#Cc1nc(C#N)n(C(=O)c2ccccc2)c1NC(=O)c1ccccc1 | > 100 | > 100 | > 100 | > 100 | > 100 | > 100 | > 100 | > 100 | > 100 | > 100
7 | Nc1nc(Cl)cc(NCC2(O)CCCC2)n1 | > 100 | > 100 | > 100 | > 100 | > 100 | – | > 100 | > 100 | > 100 | > 100
8 | O=C1CC(n2cccc2)c2c(Br)sc(Br)c21 (stereo unspecified) | 61.8 | 19.8 | 28.7 | 30.7 | 33.1 | 30.2 | 35 | 41.2 | 29.6 | 35.2
9 | O=[N+]([O-])c1ccc(C(Nc2ccccc2)c2ccc3cccnc3c2O)cc1 (stereo unspecified) | > 100 | > 62.3 | 97.7 | > 100 | 72.9 | > 74.4 | 21.1 | > 100 | 22.3 | > 100
10 | COC(=O)c1c(-c2ccc(Cl)cc2)cc2c3ccccc3n(C)c2c1C(=O)OC | > 100 | > 100 | – | > 100 | > 100 | > 100 | > 100 | > 100 | > 100 | > 100
